Assay results: ChEMBL document CHEMBL3091383, “Sorbicillamines A-E, nitrogen-containing sorbicillinoids from the deep-sea-derived fungus Penicillium sp. F23-2” (J Nat Prod, 2013)

Tests used:
HeLa = assay: Cytotoxicity against human HeLa cells by MTT assay; assay type: functional, cell-based
P388 = assay: Cytotoxicity against mouse P388 cells by SRB assay; assay type: functional, cell-based
[1] = Cytotoxicity against human Bel7402 cells by MTT assay; assay type: functional, cell-based; settings: Bel-7402
HCT-116 = assay: Cytotoxicity against human HCT116 cells by MTT assay; assay type: functional, cell-based
HEK293 = assay: Cytotoxicity against HEK293 cells by MTT assay; assay type: cell-based; settings: Homo sapiens

Measured: IC50

C/C=C/C=C/C(=O)C1=C(N)[C@](C)(O)[C@]2(O)O[C@]3(C)C(O)=C(C)C(=O)/C(=C(O)/C=C/C=C/C)[C@@H]3[C@]2(C)C1=O
> 10 µM: all assays above

C/C=C/C=C/C(O)=C1\C(=O)[C@]2(C)C(=O)C(C)(O)[C@H]1[C@H](C(=O)C1=C(N)[C@](C)(O)[C@]3(O)O[C@]4(C)C(O)=C(C)C(=O)\C(=C(O)/C=C/C=C/C)[C@@H]4[C@]3(C)C1=O)[C@H]2/C=C/C (stereo not given in full)
> 10 µM: all assays above

C/C=C/C=C/C(=O)C1=C(O)[C@]2(C)C(=O)[C@@](C)(O)[C@H]1N1CCC[C@@H]12
> 10 µM: all assays above

C/C=C/C=C/C(O)=C1/C(=O)C(C)=C(O)[C@@]2(C)O[C@@]3(O)[C@@](C)(O)C4=C(C(=O)C[C@@H](/C=C/C)N4)C(=O)[C@@]3(C)[C@@H]12
> 10 µM: all assays above

C/C=C/C=C/C(O)=C1/C(=O)C(C)=C(O)[C@@]2(C)O[C@@]3(O)[C@@](C)(O)C4=C(C(=O)C[C@H](/C=C/C)N4)C(=O)[C@@]3(C)[C@@H]12
> 10 µM: all assays above
